Assay results published in patent US9226500B2, “Pesticidal compositions and processes related thereto” (Dow AgroSciences LLC, priority 2012, dated 2016).

System: Beet Armyworm (Spodoptera exigua)
Assay: Bioassay on Beet Armyworm (BAW), 128-well diet tray assay
Assay type: in vivo
Settings: Table 3, Assays Results Part 1
Method: Certain molecules disclosed in this document were tested against BAW, CEW and CL using procedures described in the following examples. In the reporting of the results, the “BAW & CEW & CL Rating Table” was used (See Table Section).
Bioassays on BAW (Spodoptera exigua)
Bioassays on BAW were conducted using a 128-well diet tray assay. One to five second instar BAW larvae were placed in each well (3 mL) of the diet tray that had been previously filled with 1 mL of artificial diet to which 50 μg/cm^2 of the test compound (dissolved in 50 μL of 90:10 acetone-water mixture) had been applied (to each of eight wells) and then allowed to dry. Trays were covered with a clear self-adhesive cover, and held at 25° C., 14:10 light-dark for five to seven days. Percent mortality was recorded for the larvae in each well; activity in the eight wells was then averaged. The results are indicated in the tables entitled “Table 3: Assay Results Part 1” and “Table 4: Assay Results Part 2” (See Table Section).

| Structure (SMILES) | BAW Rating |
| --- | --- |
| Cc1cc(/C=C/C(c2cc(Cl)cc(Cl)c2)C(F)(F)F)ccc1C(=O)NCC(=O)NC1CS(=O)(=O)C1 (stereo not drawn) [AC81] | A (50-100) |
| O=C(NC1CS(=O)(=O)C1)c1ccc(/C=C/C(c2cc(Cl)c(Cl)c(Cl)c2)C(F)(F)F)cc1Br (stereo not drawn) [AC33] | A (50-100) |
| COc1cc(/C=C/C(c2cc(Cl)c(F)c(Cl)c2)C(F)(F)F)ccc1C(=O)NC1CS(=O)(=O)C1 (stereo not drawn) [AC85] | A (50-100) |
| CCNC(=O)NCc1ccc(/C=C/C(c2cc(Cl)c(Cl)c(Cl)c2)C(F)(F)F)cc1Br (stereo not drawn) [CC33] | A (50-100) |
| COc1c(Cl)cc(C(/C=C/c2ccc(-n3cncn3)c(C#N)c2)C(F)(F)F)cc1Cl (stereo not drawn) [DC34] | A (50-100) |
| COc1c(Cl)cc(C(/C=C/c2ccc(-n3cncn3)cc2)C(F)(F)F)cc1Cl (stereo not drawn) [DC20] | A (50-100) |
| Cc1cc(/C=C/C(c2cc(Cl)c(F)c(Cl)c2)C(F)(F)F)ccc1C(=O)NCc1cc(Cl)ccn1 (stereo not drawn) [AC77] | A (50-100) |
| Cc1cc(/C=C/C(c2cc(Cl)cc(Cl)c2)C(F)(F)F)ccc1C(=O)NCC(=O)NC1CC1 (stereo not drawn) [AC40] | A (50-100) |
| O=C(Cn1ncc2cc(/C=C/C(c3cc(Cl)c(F)c(Cl)c3)C(F)(F)F)ccc2c1=O)NCC(F)(F)F (stereo not drawn) [BC14, (E)-2-(6-(3-(3,5-Dichloro-4-fluorophenyl)-4,4,4-trifluorobut-1-en-1-yl)-1-oxophthalazin-2(1H)-yl)-N-(2,2,2-trifluoroethyl)acetamide] | A (50-100) |
| O=C(NCc1ccc(/C=C/C(c2cc(Cl)cc(Cl)c2)C(F)(F)F)cc1C(F)(F)F)C1CC1 (stereo not drawn) [CC21] | A (50-100) |
| Cc1cc(/C=C/C(c2cc(Cl)cc(Cl)c2)C(F)(F)F)ccc1C(=O)NCc1ccccn1 (stereo not drawn) [AC12] | A (50-100) |
| N#Cc1cc(/C=C/C(c2cc(Cl)c(Cl)c(Cl)c2)C(F)(F)F)ccc1-n1cnc(N(C(=O)C2CC2)C(=O)C2CC2)n1 (stereo not drawn) [DC42, (E)-N-(1-(2-Cyano-4-(4,4,4-trifluoro-3-(3,4,5-trichlorophenyl)but-1-en-1-yl)phenyl)-1H-1,2,4-triazol-3-yl)-N-(cyclopropanecarbonyl)cyclopropanecarboxamide] | A (50-100) |
| FC(F)(F)C(/C=C/c1ccc(-n2cncn2)cc1)c1ccc(Cl)cc1 (stereo not drawn) [DC4] | A (50-100) |
| O=C(CC(F)(F)F)NCc1ccc(/C=C/C(c2cc(Cl)cc(Cl)c2)C(F)(F)F)cc1 (stereo not drawn) [CC3] | A (50-100) |
| O=C(CC(F)(F)F)NCC(=O)n1ccc2cc(/C=C/C(c3cc(Cl)c(F)c(Cl)c3)C(F)(F)F)ccc21 (stereo not drawn) [BC13, (E)-N-(2-(5-(3-(3,5-Dichloro-4-fluorophenyl)-4,4,4-trifluorobut-1-en-1-yl)-1H-indol-1-yl)-2-oxoethyl)-3,3,3-trifluoropropanamide] | A (50-100) |
| Cc1cc(/C=C/C(c2cc(Cl)cc(Cl)c2)C(F)(F)F)ccc1C(=O)NCc1nc2ccccc2s1 (stereo not drawn) [AC42] | A (50-100) |
| FC(F)(F)C(/C=C/c1ccc(-n2cncn2)cc1)c1ccccc1 (stereo not drawn) [DC3] | B (More than 0-Less than 50) |
| CCNC(=O)NCc1ccc(/C=C/C(c2cc(Cl)c(Cl)c(Cl)c2)C(F)(F)F)cc1C(F)(F)F (stereo not drawn) [CC32] | A (50-100) |
| CC(=O)NCc1ccc(/C=C/C(c2cc(Cl)cc(Cl)c2)C(F)(F)F)cc1Cl (stereo not drawn) [CC7, (E)-N-(2-Chloro-4-(3-(3,5-dichlorophenyl)-4,4,4-trifluorobut-1-en-1-yl)benzyl)acetamide] | A (50-100) |
| Cc1cc(/C=C/C(c2cc(Cl)cc(Cl)c2)C(F)(F)F)ccc1C(=O)NCC1CCCO1 (stereo not drawn) [AC118] | A (50-100) |
| O=C(CC(F)(F)F)NCc1ccc(/C=C/C(c2cc(Cl)cc(Cl)c2)C(F)(F)F)cc1Cl (stereo not drawn) [CC9] | A (50-100) |
| O=C(CC(F)(F)F)NC1CCc2cc(/C=C/C(c3cc(Cl)c(F)c(Cl)c3)C(F)(F)F)ccc21 (stereo not drawn) [BC8] | A (50-100) |
| CNc1cc(/C=C/C(c2cc(Cl)cc(Cl)c2)C(F)(F)F)ccc1-n1cncn1 (stereo not drawn) [DC57, (E)-5-(3-(3,5-Dichlorophenyl)-4,4,4-trifluorobut-1-en-1-yl)-N-methyl-2-(1H-1,2,4-triazol-1-yl)aniline] | A (50-100) |
| O=C(CNC(=O)c1ccc(/C=C/C(c2cc(Cl)c(F)c(Cl)c2)C(F)(F)F)cc1[N+](=O)[O-])NCC(F)(F)F (stereo not drawn) [AC98] | A (50-100) |
| Cc1cc(/C=C/C(c2cc(Cl)cc(Cl)c2)C(F)(F)F)ccc1C(=O)NC1CS(=O)(=O)C1 (stereo not drawn) [AC13] | A (50-100) |
| N#Cc1cc(/C=C/C(c2cc(Cl)c(Cl)c(Cl)c2)C(F)(F)F)ccc1-n1cnc(N)n1 (stereo not drawn) [DC41, (E)-2-(3-Amino-1H-1,2,4-triazol-1-yl)-5-(4,4,4-trifluoro-3-(3,4,5-trichlorophenyl)but-1-en-1-yl)benzonitrile] | A (50-100) |

| Structure (SMILES) | BAW Rating |
| --- | --- |
| Cc1cc(/C=C/C(c2cc(Cl)c(F)c(Cl)c2)C(F)(F)F)ccc1C(=O)NCc1ccc(Cl)nc1 (stereo not drawn) [AC38] | A (50-100) |
| O=C(NCc1ccc(/C=C/C(c2cc(Cl)c(Cl)c(Cl)c2)C(F)(F)F)cc1)C1CC1 (stereo not drawn) [CC5] | A (50-100) |
| Cc1cc(/C=C/C(c2cc(Cl)cc(Cl)c2)C(F)(F)F)ccc1C(=O)NC(C)(C)c1ccccn1 (stereo not drawn) [AC16] | A (50-100) |
| N#Cc1cc(/C=C/C(c2cc(Cl)c(Cl)c(Cl)c2)C(F)(F)F)ccc1-n1cnc([N+](=O)[O-])n1 (stereo not drawn) [DC40, (E)-2-(3-Nitro-1H-1,2,4-triazol-1-yl)-5-(4,4,4-trifluoro-3-(3,4,5-trichlorophenyl)but-1-en-1-yl)benzonitrile] | A (50-100) |
| O=C(NCc1ccc(/C=C/C(c2cc(Cl)c(Cl)c(Cl)c2)C(F)(F)F)cc1F)C1CC1 (stereo not drawn) [CC28] | A (50-100) |
| Cc1cc(/C=C/C(c2cc(Cl)cc(Cl)c2)C(F)(F)F)ccc1C(=O)NCc1cnccn1 (stereo not drawn) [AC43] | A (50-100) |
| O=C(NCc1ncc(/C=C/C(c2cc(Cl)c(Cl)c(Cl)c2)C(F)(F)F)cc1Cl)C1CC1 (stereo not drawn) [CC45] | A (50-100) |
| COc1cc(/C=C/C(c2cc(Cl)c(F)c(Cl)c2)C(F)(F)F)ccc1C(=O)NC1CSC1 (stereo not drawn) [AC71] | A (50-100) |
| Fc1c(Cl)cc(C(/C=C/c2ccc3c(c2)CCC3NCCC(F)(F)F)C(F)(F)F)cc1Cl (stereo not drawn) [BC10, (E)-5-(3-(3,5-Dichloro-4-fluorophenyl)-4,4,4-trifluorobut-1-en-1-yl)-N-(3,3,3-trifluoropropyl)-2,3-dihydro-1H-inden-1-amine] | A (50-100) |
| O=C(NC1CCNCC1)c1ccc(/C=C/C(c2cc(Cl)c(Cl)c(Cl)c2)C(F)(F)F)cc1Br (stereo not drawn) [AC114, (E)-2-Bromo-N-(piperidin-4-yl)-4-(4,4,4-trifluoro-3-(3,4,5-trichlorophenyl)but-1-en-1-yl)benzamide] | A (50-100) |
| O=C(CNC(=S)c1ccc(/C=C/C(c2cc(Cl)c(Cl)c(Cl)c2)C(F)(F)F)cc1Br)NCC(F)(F)F (stereo not drawn) [AC91, (E)-2-(2-Bromo-4-(4,4,4-trifluoro-3-(3,4,5-trichlorophenyl)but-1-en-1-yl)phenylthioamido)-N-(2,2,2-trifluoroethyl)acetamide] | A (50-100) |
| O=C(Cc1ccc(Cl)nc1)NC1CCc2cc(/C=C/C(c3cc(Cl)c(F)c(Cl)c3)C(F)(F)F)ccc21 (stereo not drawn) [BC9] | A (50-100) |
| CC(=O)Nc1ncn(-c2ccc(/C=C/C(c3cc(Cl)cc(Cl)c3)C(F)(F)F)cc2C#N)n1 (stereo not drawn) [DC39] | A (50-100) |
| Cc1cc(/C=C/C(c2cc(Cl)c(F)c(Cl)c2)C(F)(F)F)ccc1C(=O)NCc1ccc(Cl)cn1 (stereo not drawn) [AC53] | A (50-100) |
| O=C(NC1CSC1)c1ccc(/C=C/C(c2cc(Cl)c(F)c(Cl)c2)C(F)(F)F)cc1F (stereo not drawn) [AC67] | A (50-100) |
| O=C(NC1CSC1)c1ccc(/C=C/C(c2cc(Cl)cc(Cl)c2)C(F)(F)F)cc1F (stereo not drawn) [AC61] | A (50-100) |
| Cc1cc(C)cc(C(/C=C/c2ccc(-n3cncn3)cc2)C(F)(F)F)c1 (stereo not drawn) [DC11] | A (50-100) |
| FC(F)(F)C(/C=C/c1ccc(CNc2ccccn2)c(Cl)c1)c1cc(Cl)c(Cl)c(Cl)c1 (stereo not drawn) [CC43, (E)-N-(2-Chloro-4-(4,4,4-trifluoro-3-(3,4,5-trichlorophenyl)but-1-en-1-yl)benzyl)pyridin-2-amine] | A (50-100) |
| Cc1cc(/C=C/C(c2cc(Cl)cc(Cl)c2)C(F)(F)F)ccc1C(=S)NCc1ccc(Cl)nc1 (stereo not drawn) [AC115, (E)-N-((6-Chloropyridin-3-yl)methyl)-4-(3-(3,5-dichlorophenyl)-4,4,4-trifluorobut-1-en-1-yl)-2-methylbenzothioamide] | A (50-100) |
| O=C(CC(F)(F)F)NNc1ccc(/C=C/C(c2cc(Cl)c(Cl)c(Cl)c2)C(F)(F)F)cc1 (stereo not drawn) [CC51] | A (50-100) |
| O=C(NC1C[S+]([O-])C1)c1ccc(/C=C/C(c2cc(Cl)c(F)c(Cl)c2)C(F)(F)F)cc1F (stereo not drawn) [AC87] | A (50-100) |
| O=C(C1CC1)N(Cc1ccccn1)Cc1ccc(/C=C/C(c2cc(Cl)c(Cl)c(Cl)c2)C(F)(F)F)cc1C(F)(F)F (stereo not drawn) [CC29, (E)-N-(Pyridin-2-ylmethyl)-N-(4-(4,4,4-trifluoro-3-(3,4,5-trichlorophenyl)but-1-enyl)-2-(trifluoromethyl)benzyl)cyclopropanecarboxamide] | A (50-100) |
| O=C(NCc1ccc(/C=C/C(c2ccc(Cl)c(Cl)c2)C(F)(F)F)cc1Cl)C1CC1 (stereo not drawn) [CC17] | A (50-100) |
| O=C(CC(F)(F)F)NCc1ncc(/C=C/C(c2cc(Cl)c(Cl)c(Cl)c2)C(F)(F)F)cc1Cl (stereo not drawn) [CC44, (E)-N-((3-Chloro-5-(4,4,4-trifluoro-3-(3,4,5-trichlorophenyl)-but-1-en-1-yl)pyridin-2-yl)methyl)-3,3,3-trifluoropropanamide] | A (50-100) |
| CCc1cc(/C=C/C(c2cc(Cl)c(F)c(Cl)c2)C(F)(F)F)ccc1C(=O)NCC(=O)NCC(F)(F)F (stereo not drawn) [AC80] | A (50-100) |
